From the supplement of paper PMC10307832

Key:
Test in all cases: relative viability (nuclei count vs DMSO), 5 days (fraction); higher = more cells survive
Carboplatin + Navitoclax = compound: C1CC(C1)(C(=O)O)C(=O)O.[NH2-].[NH2-].[Pt+2] [Carboplatin] + CC1(C)CCC(c2ccc(Cl)cc2)=C(CN2CCN(c3ccc(C(=O)NS(=O)(=O)c4ccc(N[C@H](CCN5CCOCC5)CSc5ccccc5)c(S(=O)(=O)C(F)(F)F)c4)cc3)CC2)C1 [Navitoclax] (partner 0.5 µM)
Outline: (§1)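 After 5 days of treatment, lung cancer cells in 1536-well plates were fixed and stained in a single step (final 0.05% Triton X-100, 1% formaldehyde, 1 ug/ml Hoechst) and their nuclei counted on 4× images. Treatment had been applied by pin tool the day after seeding as one drug alone or as a fixed anchor-drug dose with five library-drug doses (not always all listed) in √10 steps. Relative viability is the nuclei count of treated wells divided by that of vehicle wells, and values are medians of duplicate plates.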

MLN4924 + Navitoclax = compound: NS(=O)(=O)OC[C@@H]1C[C@@H](n2ccc3c(N[C@H]4CCc5ccccc54)ncnc32)C[C@@H]1O [MLN4924] + CC1(C)CCC(c2ccc(Cl)cc2)=C(CN2CCN(c3ccc(C(=O)NS(=O)(=O)c4ccc(N[C@H](CCN5CCOCC5)CSc5ccccc5)c(S(=O)(=O)C(F)(F)F)c4)cc3)CC2)C1 [Navitoclax] (partner 0.5 µM)
Outline: as §1

MLN4924 + Tozasertib = compound: NS(=O)(=O)OC[C@@H]1C[C@@H](n2ccc3c(N[C@H]4CCc5ccccc54)ncnc32)C[C@@H]1O [MLN4924] + Cc1cc(Nc2cc(N3CCN(C)CC3)nc(Sc3ccc(NC(=O)C4CC4)cc3)n2)n[nH]1 [Tozasertib] (partner 0.1 µM)
Outline: as §1

MLN4924 + Alpelisib = compound: NS(=O)(=O)OC[C@@H]1C[C@@H](n2ccc3c(N[C@H]4CCc5ccccc54)ncnc32)C[C@@H]1O [MLN4924] + Cc1nc(NC(=O)N2CCC[C@H]2C(N)=O)sc1-c1ccnc(C(C)(C)C(F)(F)F)c1 [Alpelisib] (partner 2 µM)
Outline: as §1

Cell Line	relative viability (Carboplatin + Navitoclax; first compound 0.08 µM)	relative viability (Carboplatin + Navitoclax; first compound 0.253 µM)	relative viability (Carboplatin + Navitoclax; first compound 0.8 µM)	relative viability (Carboplatin + Navitoclax; first compound 2.53 µM)	relative viability (Carboplatin + Navitoclax; first compound 8 µM)	relative viability (MLN4924 + Navitoclax; first compound 0.04 µM)	relative viability (MLN4924 + Navitoclax; first compound 0.1265 µM)	relative viability (MLN4924 + Navitoclax; first compound 0.4 µM)	relative viability (MLN4924 + Navitoclax; first compound 1.265 µM)	relative viability (MLN4924 + Navitoclax; first compound 4 µM)	relative viability (MLN4924 + Tozasertib; first compound 0.04 µM)	relative viability (MLN4924 + Tozasertib; first compound 0.1265 µM)	relative viability (MLN4924 + Tozasertib; first compound 0.4 µM)	relative viability (MLN4924 + Tozasertib; first compound 1.265 µM)	relative viability (MLN4924 + Tozasertib; first compound 4 µM)	relative viability (MLN4924 + Alpelisib; first compound 0.04 µM)	relative viability (MLN4924 + Alpelisib; first compound 0.1265 µM)	relative viability (MLN4924 + Alpelisib; first compound 0.4 µM)	relative viability (MLN4924 + Alpelisib; first compound 1.265 µM)	relative viability (MLN4924 + Alpelisib; first compound 4 µM)
LOU-NH91	0.831	0.642	0.667	0.706	0.624	0.649	0.761	0.556	0.41	0.314	0.641	0.689	0.502	0.336	0.342	0.804	1.02	0.855	0.407	0.476
LU99A	0.842	0.881	0.829	0.774	0.581	0.46	0.267	0.243	0.158	0.166	0.251	0.244	0.224	0.178	0.165	0.418	0.244	0.299	0.173	0.153
LXF-289	0.933	0.982	0.932	0.903	0.927	0.848	0.664	0.524	0.174	0.113	0.194	0.162	0.155	0.083	0.0804	0.814	0.715	0.452	0.231	0.142
NCI-H23	0.887	0.9	0.789	0.835	0.588	0.759	0.69	0.281	0.218	0.148	0.367	0.388	0.235	0.176	0.141	0.611	0.5	0.28	0.149	0.155
NCI-H322M	1.26	1.22	1.18	1.13	1.05	1.3	1.22	0.844	0.338	0.382	0.479	0.537	0.434	0.26	0.325	0.783	0.786	0.713	0.259	0.321
NCI-H441	0.657	1.19	0.447	0.545	0.526	0.708	0.489	0.357	0.138	0.173	0.674	0.444	0.329	0.236	0.22	0.549	0.526	0.296	0.123	0.168
NCI-H460	1.13	1.11	1.03	0.986	0.358	1.01	1.04	0.431	0.0395	0.024	0.464	0.484	0.421	0.228	0.0266	0.677	0.688	0.662	0.0819	0.0199
NCI-H520	1.16	1.09	0.961	1.02	0.857	0.629	0.583	0.298	0.227	0.223	0.461	0.513	0.425	0.204	0.25	0.535	0.432	0.308	0.22	0.181
NCI-H596	1	0.952	0.803	0.74	0.695	0.969	0.99	0.62	0.68	0.28	0.819	0.987	–	0.514	0.528	0.468	0.61	0.426	0.664	0.52
NCI-H647	1.18	1.17	1.08	1.09	0.784	0.976	0.424	0.159	0.0575	0.0744	0.281	0.181	0.149	0.0334	0.0369	1.04	0.653	0.18	0.0485	0.0516
NCI-H727	0.487	0.393	0.426	0.441	0.324	0.303	0.255	0.269	0.231	0.19	0.677	0.462	0.432	0.335	0.328	0.474	0.292	0.245	0.194	0.213
NCI-H838	1.22	1.08	1.16	1.11	1.06	0.831	0.307	0.211	0.16	0.196	0.275	0.288	0.204	0.123	0.118	0.795	0.658	0.261	0.168	0.148
NCI-H1355	1.02	1.01	0.853	0.912	0.921	0.982	0.847	0.657	0.268	0.302	0.549	0.553	0.576	0.3	0.204	0.831	0.865	0.776	0.35	0.152
NCI-H1395	1.16	1.2	0.799	0.845	0.591	0.981	1.19	0.651	0.407	0.375	0.72	0.609	0.475	0.397	0.337	1.05	0.812	0.553	0.343	0.365
NCI-H1437	1.07	1.14	1.09	1.05	0.97	1.03	0.906	0.571	0.347	0.143	0.298	0.254	0.176	0.195	0.133	0.905	0.977	0.755	0.422	0.101
